Key:
[1] = organism: Homo sapiens; assay: Binding affinity to DNA
[2] = tested on: PBMC; assay: Growth inhibition of human PBMC after 48 hrs by XTT assay; assay type: cell-based
[3] = Partition coefficient, log P of the compound; assay type: physicochemical; details: octanol/water

CC1=C(/C=C/C(C)=C\C=C\C(C)=C\C=N/NC(N)=S)C(C)(C)CCC1
Kb [1]: 8.3 10^5/M
Activity [2]: Non-toxic
logP [3]: 1.05

— ChEMBL document CHEMBL1147188, “Metal complexes of retinoid derivatives with antiproliferative activity: synthesis, characterization and DNA interaction studies” (Eur J Med Chem, 2007)
